Assay results taken from patent US8530680B2, “System and method for controlling growth of microorganisms with brominated furanones” (Syracuse University, priority 2008, dated 2013).

Assays:
Type in all cases: cell-based
[1] = tested on: Chaetomium globosum wildtype strain (CG); experiment: Fungal growth on MEA plates with furanone; parameters: key to growth on plate, CG: −: No growth was observed; +: normal growth was seen; conditions: for growth on plate, CG: 60 μg/mL, 7 days at 30° C.; for growth inhibition test, inhibitory concentration, CG: tested at 1, 5, 30, 60 μg/mL, 7 days
Method: (§1) This Example examines the effect of brominated furanones on the growth of fungi associated with damage to building material. Six fungal strains were the subject of these experiments; Gloeophyllum trabeum (strains GT598 and GT599), Chaetomium globosum (wildtype strain and CG572), and Trametes versicolor (strains TV7B2-59 and TV57MAD277). The species were developed on 2% Malt-Extract Agar (MEA) plates and stored inverted at 4° C. The stocks were refreshed by streaking new plates every two months.
(§2) The brominated and non-brominated furanones were added to MAE agar plates at different concentrations. The brominated furanones were dissolved in either ethanol (“EtOH”) or methanol (“MeOH”) as stock solutions, as shown in Table 5. The non-brominated furanones were purchased from Sigma (St. Louis, Mo.). The furanone stocks were stored at 4° C.
(§3) MAE agar plates containing the same amounts of ethanol/methanol were also prepared as negative controls to eliminate any solvent effects. The plates were prepared using either 90 mm or 60 mm petri dishes and were stored inverted at 4° C. until use.
(§4) Different concentrations of furanones were studied to compare their antifungal activities. The plates were inoculated with the six fungal strains using a platinum loop and were incubated upside down at 30° C. for 7 days to monitor the growth. The initial screening was performed using a single 60 μg/mL furanone concentration.

[2] = tested on: Gloeophyllum trabeum strain GT599; experiment: Fungal growth on MEA plates with furanone; parameters: key to growth on plate, GT599: −: No growth was observed; +: normal growth was seen; conditions: for growth on plate, GT599: 60 μg/mL, 7 days at 30° C.; for growth inhibition test, inhibitory concentration, GT599: tested at 1, 5, 30, 60 μg/mL, 7 days
Method: as §1, §2, §3, §4

E. coli = E. coli growth inhibition (results not shown); conditions: at / up to 60 μg/mL
[3] = tested on: extracellular AI-2 activities of E. coli; experiment: AI-2 bioluminescence assay (V. harveyi BB170 reporter, E. coli supernatants); conditions: 60 μg/mL, E. coli culture 8 hours, supernatant on V. harveyi BB170
Method: To explore if brominated furanones have an interaction with quorum-sensing based on AI-2, a bioluminescence assay was conducted. Specifically, to examine whether the novel BFs have any inhibitory effects on universal QS signal AI-2, the bioluminescence of the reporter Vibrio harveyi (“V. harveyi”) strain BB170 was used as an indicator of AI-2 activities.
The E. coli strains RP437 [thr-1(Am) leuB6 his-4 metF159(Am) eda-50 rpsL1356 thi-1 ara-14 mtl-1 xyl-5 tonA31 tsx-78 lacY1 F-] and quorum-sensing mutant BW25113 ΔLuxS [ΔluxS::kan^r lacI^q rrnB3 ΔlacZ4787 hsdR514 Δ(araBAD)567 Δ (rhaBAD)568 rph-1] were routinely grown at 37° C. with shaking at 200 rpm in LB medium containing 10 g/L NaCl, 5 g/L yeast extract and 10 g/L tryptone. […]
The reporter strain V. harveyi BB170 was grown in AB medium at 30° C. for 16 hours. […] The subcultures were incubated at 30° C. and the bioluminescence was measured every hour as an indicator of AI-2 activity using a luminometer (Model 20/20m Turner BioSystems, Inc., Sunnyvale, Calif.). The colony-forming units (CFUs) of V. harveyi strain BB170 were counted after spreading the cell cultures on LM agar plates containing 10 g/L tryptone, 5 g/L yeast extract, 20 g/L NaCl and 15 g/L agar plates and incubating at 30° C. for 24 hours.
It was previously known that the V. harveyi BB170 strain produces luminescence in response to AI-2 but not in response to homoserine lactones (AHLs) as a result of a mutation in the AHL sensor gene. At low cell densities, the basal level of AI-2 will not trigger significant production of luminescence in V. harveyi BB170; however, at high cell densities, the extracellular AI-2 concentration will reach a certain threshold and induce the bioluminescence of V. harveyi. […]

| Structure (SMILES) | growth on plate, CG [1] | growth inhibition test, inhibitory concentration, CG [1] [µg/mL] | growth on plate, GT599 [2] | growth inhibition test, inhibitory concentration, GT599 [2] [µg/mL] | growth inhibition of E. coli (E. coli) | reduction of extracellular AI-2 activity [3] [%] |
| --- | --- | --- | --- | --- | --- | --- |
| CCCCC1=C(Br)/C(=C/Br)OC1=O [BF1, 4-bromo-5Z-(bromomethylene)-3-butylfuran-2-one] | − | 30 | − | 30 |  |  |
| CC1=C(Br)/C(=C/Br)OC1=O [BF8, 4-bromo-5Z-(bromomethylene)-3-methylfuran-2-one] | − | 5 | − | 5 | did not inhibit | 72.9±1.0 |
| CC1=CC(=C(Br)Br)OC1=O [BF9, 5-(dibromomethylene)-3-methylfuran-2-one] | − | 5 | − | 60 | does not inhibit | 42.2±0.3 |
| O=C1OC(=C(Br)Br)C=C1C(Br)Br [BF10, 3-(dibromomethyl)-5-(dibromomethylene)furan-2-one] | − | 30 | − | 30 |  | 31.0±5.1 |
